Assay results as given in patent US5837839A, “DNA coding sequences for mevalonate Pyrophosphate decarboxylase” (Novartis Finance Corporation, priority 1996, dated 1998).

How the values were obtained:
[1] = system: chicken liver MPD (mevalonate pyrophosphate decarboxylase); conditions: pseudo-first order kinetics; ATP and MevPP protect against inactivation; cited from earlier work
[2] = target: T1, partially purified human liver MPD (mevalonate pyrophosphate decarboxylase) (Homo sapiens, UniProt P53602); experiment: Inhibition of partially purified human liver MPD by phenylglyoxal; type: biochemical; conditions: partially purified enzyme; no concentration stated
T1 construct: from tissue; host or cells: human liver
T1 sequence (P53602 1-400): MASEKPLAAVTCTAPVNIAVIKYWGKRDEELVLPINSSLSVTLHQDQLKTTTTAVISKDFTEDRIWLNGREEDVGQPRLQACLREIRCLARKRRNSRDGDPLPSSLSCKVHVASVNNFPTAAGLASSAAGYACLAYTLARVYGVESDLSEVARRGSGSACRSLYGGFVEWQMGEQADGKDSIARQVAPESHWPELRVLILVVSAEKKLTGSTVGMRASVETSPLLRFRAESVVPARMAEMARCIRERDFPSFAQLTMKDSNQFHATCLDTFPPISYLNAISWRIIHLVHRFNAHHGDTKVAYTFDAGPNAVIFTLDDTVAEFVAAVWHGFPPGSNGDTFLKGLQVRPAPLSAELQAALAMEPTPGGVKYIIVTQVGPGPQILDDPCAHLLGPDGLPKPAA
From the text: This agrees with the work of Jabalquinto et al., (1983) Arch. Biochem. Biophys. […] They concluded that a single arginine is near the binding site of ATP and MevPP in the chicken liver enzyme. To this end, the Arg27Lys and Arg153Lys mutants were made using the AAA lysine codon triplet and a single-stranded DNA template isolated from pO-3. These mutated cDNAs were subcloned into pET14-b and expressed like p11-4 as described above. […] The Arg27Lys mutant appears to produce lower activity compared to the parent plasmid ([…]) from which it was derived, but this may not be a significant difference. […] Antisera against MPD for the Westerns was made with material expressed in E. coli from plasmid p11-4.
Cell pellets from the various expression systems were sonicated in homogenization buffer (20 mM Tris/HCl pH 7.5, 15 mM EDTA, 15 mM EGTA, 100 μM Leupeptin, 0.75 mg/l Aprotinin, 0.1 mM PMSF) and assayed directly for enzyme activity and protein concentration. Activity was measured as the conversion of labelled mevalonate pyrophosphate into isopentenyl pyrophosphate. […] 2 ml of Econofluor-2 (New England Nuclear) was added to the assay mixture the sample was capped, shaken, and counted on a scintillation counter. Because of the organic nature of the scintillation fluid, dephosphorylated product (isopentenyl) is solubilized and counted whereas dephosphorylated substrate (mevalonic acid) is not. […]

## O=CC(=O)c1ccccc1 [phenylgloxal]
[1]
  inactivation of MPD: inactivated
[2]
  inhibition of MPD: inhibited
